Results on two compounds are retold here after patent publication US20100080785A1, “DRIED FORMULATIONS” (Zymes, LLC, priority 2008, published 2010).

Series [1] can be described thus: stability and shelf life at ambient conditions. It is filed as physicochemical. The note with it: ubiquinol. The text has this:
By contrast, the dry formulations of ubiquinol disclosed herein remains white for weeks at ambient conditions.
By contrast, the dry formulations of omega-3 fatty acid disclosed herein remains odorless for weeks at ambient conditions.

Series [2] in a line: stability of the solution on heating to 50-55° C. It counts as physicochemical.

On to `COc1c(O)c(C)c(C/C=C(\C)CC/C=C(\C)CC/C=C(\C)CC/C=C(\C)CC/C=C(\C)CC/C=C(\C)CC/C=C(\C)CC/C=C(\C)CC/C=C(\C)CCC=C(C)C)c(O)c1OC` [bulk ubiquinol, ubiquinol], for which the “oxidation / colour on storage” value in series [1] was “gradually oxidizes and develops a yellow hue”.
In the case of “polyoxyethanyl tocopheryl sebacate [PTS]”, the “degradation on heating without pH adjustment” value in series [2] was “decomposes and undergoes hydrolysis”.
